The source of these data is patent US20250041389A1, “ENHANCING ABSORPTION OF DIETARY COMPOUNDS TO PROMOTE HEALTH” (ARIZONA BOARD OF REGENTS ON BEHALF OF THE UNIVERSITY OF …, priority 2023, published 2025).

For test [1], the system named is ovariectomized rats. In words: Bone loss in ovariectomized rats (FDA-approved model for testing osteoporosis treatments). In kind it is in vivo.
For test [2], the system named is rheumatoid arthritis model. In words: Joint inflammation in a rheumatoid arthritis model. The test is classed as in vivo.
Test [3] has as its system breast cancer bone metastasis models. Briefly: Osteolysis in breast cancer bone metastasis models. The test is classed as in vivo.
Test [4] concerns TGF-β signaling in human breast cancer cells. In words: Inhibition of TGF-β signaling in human breast cancer cells. The test is classed as cell-based.

On to `COc1cc(/C=C/C(=O)CC(=O)/C=C/c2ccc(O)c(OC)c2)ccc1O` [curcumin], for which, in test [1], the bone loss entry was “prevent” and the bone-resorbing osteoclasts result is recorded as “decreasing”. The joint inflammation result in test [2] is listed as “prevent”. For the same molecule, the osteolysis entry in test [3] is “mitigate”. In addition, in test [4], the TGF-β signaling result is given as “inhibit”.

On to gingerols, for which the joint inflammation result in test [2] is “prevent”.

For the molecule shogaols, in test [2], the joint inflammation result is reported as “prevent”.
